Assays:
12F1 mAb [1] = test: Indirect ELISA (iELISA) of 12F1 mAb on coated P5-5-BSA and P5-5 mutant-BSA; type: binding, mouse; settings: peptide-BSA conjugate coated at 10 µg/mL; 12F1 mAb 1:2000; compared with WT P5-5 and negative control BSA; six repeated experiments (Figure 4)
Description: The P5-5 and mutants were conjugated to BSA by the EDC conjugating method. Firstly, the P5-5 and other 9 mutant peptide solutions (4 mg/mL in 0.1 M MES buffer, pH 4.7) were separately mixed with BSA solution (10 mg/mL in 0.1 M MES buffer, pH 4.7). Then, the reaction mixtures were all supplemented with 100 μL of EDC solution (10 mg/mL in deionized water) and incubated at 25 °C for 2 h to facilitate conjugation. The haptens were coupled to BSA at a molar ratio of 10:1 [14]. After a two-hour reaction, the resulting mixtures were subjected to dialysis against 0.01 M phosphate-buffered saline (PBS, pH 7.4) for 48 h. The final products were then stored at −20 °C for the following applications. The P5-5 and mutant conjugates were examined using native gel electrophoresis, and the concentration of the complete antigen was determined using the BCA protein assay kit.
Indirect ELISA (iELISA): To identify the key binding epitopes of the prepared mAb to the P5-5 epitope, P5-5-BSA, and P5-5 mutant-BSA, the antigens were coated onto 96-well plates at a concentration of 10 µg/mL [15]. Subsequently, purified 12F1 mAb diluted at 1:2000 in blocking buffer was added to the wells after blocking and washing. Following another washing step, goat anti-mouse IgG-HRP at a 1:5000 dilution in blocking buffer was added and incubated at 37 °C for 1 h. To commence color development, 100 μL of 3,3,5,5-Tetramethylbenzidine (TMB) solution was added to each well, followed by 100 μL of 2 M H2SO4. The absorbance at 450 nm was measured using a microplate reader.

12F1 mAb [2] = test: Indirect competitive ELISA (ic-ELISA) of P5-5 and mutant peptides against 12F1 mAb; type: binding, mouse; settings: coating P5-5-OVA 5 μg/mL; free peptide competitor 0.61 ng/mL-20 μg/mL; pre-mixed with 12F1 mAb 37 °C 30 min; compared with WT P5-5 (Figure 5)
Description: Indirect competitive ELISA (ic-ELISA): the inhibition ability of 12F1 mAb against P5-5 and its mutants was assessed through icELISA [16]. A coating antigen P5-5-OVA solution at a concentration of 5 μg/mL was prepared and dispensed (100 μL) into each well of a 96-well ELISA plate. The plates were then left to incubate at 4 °C overnight. Following washing, 5% (w/v) PBSM was added to each well and incubated at 37 °C for 2 h. The synthesized peptides of P5-5 and its variants were prepared as 1 mg/mL stock solution (dissolved in 0.01M PBS, pH 7.4). These peptides were then serially diluted in PBSM to concentrations of 20 μg/mL, 10 μg/mL, 5 μg/mL, 2.5 μg/mL, 1.25 μg/mL, 625 ng/mL, 312.5 ng/mL, 156.25 ng/mL, 78.13 ng/mL, 39.06 ng/mL, 19.53 ng/mL, 9.77 ng/mL, 4.88 ng/mL, 2.44 ng/mL, 1.22 ng/mL, and 0.61 ng/mL for the competitor in the ic-ELISA assay. Subsequently, 12F1 mAb was mixed thoroughly with the diluted solutions of P5-5 and its mutants at equal volume at 37 °C for 30 min incubation and reaction. Following this, each well was impressed by 100 μL of the mixture, which was then incubated at 37 °C for one hour. The succeeding stages, which included the addition of HRP-goat anti-mouse serum, TMB substrate solution, and stop solution, were carried out as described earlier. The measurement of the OD value was then taken under 450 nm. The IC50 values of the 12F1 monoclonal antibody against synthesized P5-5 and nine other mutant peptides were determined using the four-parameter logistic equations in Prism 9.0 GraphPad software (version 9.0 GraphPad Software), following the established methodology.

NDALAEYLRQ [Y5A, P5-5 mutant, position 5 (Tyr) mutated to alanine]
binding activity of 12F1 mAb (indirect ELISA, OD 450 nm) (12F1 mAb [1]): weak binding signals | antigen inhibitory capability / antibody binding in ic-ELISA (12F1 mAb [2]): significantly reduced compared to the WT P5-5

NAALYEYLRQ [DA2, P5-5 mutant, position 2 (Asp) mutated to alanine]
binding activity of 12F1 mAb (indirect ELISA, OD 450 nm) (12F1 mAb [1]): weak binding signals | antigen inhibitory capability / antibody binding in ic-ELISA (12F1 mAb [2]): significantly reduced compared to the WT P5-5

NDALYEALRQ [Y7A, P5-5 mutant, position 7 (Tyr) mutated to alanine]
binding activity of 12F1 mAb (indirect ELISA, OD 450 nm) (12F1 mAb [1]): weak binding signals | antigen inhibitory capability / antibody binding in ic-ELISA (12F1 mAb [2]): significantly reduced compared to the WT P5-5

NDALYAYLRQ [E6A, P5-5 mutant, position 6 (Glu) mutated to alanine]
binding activity of 12F1 mAb (indirect ELISA, OD 450 nm) (12F1 mAb [1]): weak binding signals | antigen inhibitory capability / antibody binding in ic-ELISA (12F1 mAb [2]): significantly reduced compared to the WT P5-5

NDAAYEYLRQ [L4A, P5-5 mutant, position 4 (Leu) mutated to alanine]
binding activity of 12F1 mAb (indirect ELISA, OD 450 nm) (12F1 mAb [1]): significantly reduced to levels similar to the negative control | antigen inhibitory capability / antibody binding in ic-ELISA (12F1 mAb [2]): entirely lost their ability to bind antibodies

NDALYEYARQ [L8A, P5-5 mutant, position 8 (Leu) mutated to alanine]
binding activity of 12F1 mAb (indirect ELISA, OD 450 nm) (12F1 mAb [1]): significantly reduced to levels similar to the negative control | antigen inhibitory capability / antibody binding in ic-ELISA (12F1 mAb [2]): entirely lost their ability to bind antibodies
